Assay results from the METLIN SMRT retention time set (Domingo-Almenara et al. 2019).

Test: gradient 5% acetonitrile 3 min, to 50% in 2 min, to 85% in 15 min, held 3 min, 100 µL/min
Settings: column: Zorbax Extend-C18 2.1 x 50 mm; eluents: water / acetonitrile, 0.1% formic acid
Method in brief: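 Pure standards were run in mixtures of ~100 molecules by HPLC coupled to a quadrupole time-of-flight mass spectrometer. The column was a Zorbax Extend-C18 (2.1 × 50 mm, 1.8 μm) at 100 μL/min, with water and acetonitrile each containing 0.1% formic acid, in positive and negative ionization mode. Dead and dwell volumes were 40 μL and 900 μL. Retention time was taken from computationally picked adduct peaks, each manually inspected, with data collected over 3 months.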

Row | SMILES | RP-LC retention time [s]
1 | CC(C)CC(=O)N[C@H](Cc1ccccc1)C(=O)NCc1cscn1 | 699
2 | CCOCCCNC(=O)Nc1ccc(CCc2nc3ccccc3[nH]2)cc1 | 598
3 | COc1ccc(CN(C)Cc2cc(=O)n3cc(Cl)ccc3n2)cc1OC | 606
4 | O=C(NCCCOc1cccc2cccnc12)c1cc(-c2ccccc2)on1 | 617
5 | COc1ccc(-n2ncc3c(=O)n(Cc4nc(-c5ccc(Cl)c(F)c5)no4)cnc32)cc1 | 1090
6 | CCOc1cccc(-c2noc(-c3nnn4c3COC(c3ccc(OC)cc3)C4)n2)c1 (configuration not stated) | 1210
7 | COC(=O)c1c(-c2cccc(F)c2)noc1NCCc1c(C)noc1C | 968
8 | COC(=O)c1ccc(NC(=O)CSc2nnc(CN3CCOCC3)o2)cc1 | 576
9 | CCCn1ccc2sc(C)c(C(=O)NCc3ccc(C)cc3)c2c1=O | 948
10 | CCN1c2ccccc2C(=O)NC12CCN(C(=O)Nc1ccc(OC)cc1)CC2 | 735
11 | CC1=C(C(=O)OCCC#N)C(c2ccccc2Cl)NC(=O)N1 (configuration not stated) | 668
12 | O=C(Cc1csc2nc(-c3ccccc3)cn12)Nc1ccc(F)c(Cl)c1 | 902
13 | O=C(NCCc1ccccc1)NCCn1c(-c2ccccc2)nc2cccnc21 | 683
14 | CCCCn1cc(S(=O)(=O)NCc2ccc(F)cc2Cl)c2cccnc21 | 1030
15 | COc1ccc(-c2c(C)nn3c(C)c(C(=O)OC(C)C)nnc23)cc1 | 1010
16 | Cc1ccc(CNC(=O)Cn2c(C)cc(-c3nnc(-c4ccc(F)cc4)o3)c2C)cc1 | 982
17 | CC1(C)CC(=O)C2=C(C1)Nc1ccccc1N(CC(=O)NCc1ccncc1)C2c1ccco1 (configuration not stated) | 631
18 | COC[C@@H]1CN(Cc2cc(C)nn2C)C[C@H]1c1ccccn1 | 559

Continued, values first:

Row | RP-LC retention time [s] | SMILES
19 | 795 | CCOC(=O)CNC(=O)N1CCCC1c1ccc(Cl)cc1 (configuration not stated)
20 | 1190 | CC1CCN(c2nn(CC(=O)NCCc3ccc(Cl)cc3)c(=O)c3ccccc23)CC1
21 | 649 | O=C(CSCc1nc2cccnc2n1C1CCCCC1)N1CCN(c2ccccn2)CC1
22 | 660 | Cc1cc(N2CCN(C(=O)Nc3ccc4c(c3)OCO4)CC2)nc(N2CCCCC2)n1
23 | 962 | CCN1CCCc2cc(C(=O)NCc3cccc(OC)c3)sc21
24 | 584 | Cc1ncc2n1CCN(S(=O)(=O)c1ccccc1)C2
25 | 738 | Cc1ccc(NS(=O)(=O)c2cc(-c3[nH]ncc3C(=O)N3CCCC3)oc2C)c(F)c1
26 | 736 | CCOc1ccc(-c2noc(N3CCC(C(=O)N4CCOCC4)CC3)n2)cc1OC
27 | 860 | Cc1cc(C)cc(C(=O)N2CCC(C(=O)NCc3csc(-c4cccs4)n3)CC2)c1
28 | 607 | Cn1c(C(=O)N2CCN(c3ccccn3)CC2)cc2c(=O)oc3ccccc3c21
29 | 881 | CC1CCCN(S(=O)(=O)c2ccc(-n3cnc(C(=O)N4CCCCC4)c3)nc2)C1 (configuration not stated)
30 | 597 | O=C(C1CCCN(c2ccc(-c3ccccc3)nn2)C1)N1CCN(C2CCCCC2)CC1 (configuration not stated)
31 | 788 | Cc1ccc(N2CCC(NC(=O)NC3CCCC3)C2=O)cc1C (configuration not stated)
32 | 752 | Cc1ccccc1C(=O)N1CCN(CC(F)(F)F)CC1
33 | 574 | CCc1cc(=O)n(CC(=O)NC2CCCC2)c(N)n1
34 | 726 | CCN(CC)c1ncc2c(n1)CCC(C(=O)Nc1ccc(OC)cc1OC)C2 (configuration not stated)
35 | 673 | Cc1ccc(S(=O)(=O)Nc2cc(C(=O)O)ccc2N2CCN(c3ccccn3)CC2)cc1
36 | 984 | COc1cc(NC(=O)C2CCN(c3nccnc3Sc3ccccc3)CC2)cc(OC)c1OC
37 | 946 | Cc1nc(-c2ccc(N3CCN(C(=O)c4ccc(Cl)cc4)CC3)nc2)sc1C
